{"source": "patent US9157104B2", "about": "“Method to improve phosphate solubilization in plants” (Consiglio Nazionale delle Ricerche, priority 2009, dated 2015)", "key": {"acid phosphatase": {"tested_on": "acid phosphatase", "assay": "Acid phosphatase activity under P-starved conditions", "format": "cell-based, S. meliloti", "details": "phosphate starvation; vs 1021 cells; compounds 0.5 mM, 3 hours at 30° C."}, "[1]": {"tested_on": "pho operon genes in S. meliloti cells", "assay": "Quantitative RT-PCR analysis of pho operon genes", "format": "cell-based", "details": "for expression level of all five pho genes (RT-PCR): P-starved conditions, vs control 1021", "procedure": "FIG. S1. Quantitative RT-PCR analysis of pho operon genes in S. meliloti cells under P-sufficient conditions (13 mM K-phosphate). The relative expression level was >1 for genes more highly expressed in RD64 and in 1021 cells treated for 3 hours with 0.5 mM IAA, Ind, Trp, ICA and 2,4-D. The relative expression level was <1 for genes more highly expressed in 1021 cells (control). Error bars represent the standard deviation from three independent biological experiments.\nFIG. 1. Quantitative RT-PCR analysis of pho operon genes expression in S. meliloti cells under P-starving conditions. The relative expression level was >1 for genes more highly expressed in RD64 and in 1021 cells treated for 3 hours with 0.5 mM IAA, Ind, Trp, ICA and 2,4-D. The relative expression level was <1 for genes more highly expressed in 1021 cells (control). Error bars represent the standard deviation from five independent biological experiments (p<0.05).\nTotal RNA from P-sufficient and P-starved cells was isolated as previously described (5). cDNA were synthesized with the StrataScript™ reverse transcription reagents (Stratagene) and random hexamers as primers. Quantitative PCR was performed with the Power SYBR PCR Master Mix (Applied Biosystems). Reactions were run on the iCycler iQ (Bio-Rad). The thermo cycling condition were: 15 min at 95° C., 40 cycles of denaturation at 95° C. for 20 s, annealing (20 s) and extension (35 s) at 72° C. Specific primer pairs, designed using the Primer3 software, are shown.\nsmc02641 and smc00128 were used as housekeeping genes for data normalization in the comparative Ct method as previously described (8). Phosphatase Activity"}, "alkaline phosphatase": {"tested_on": "alkaline phosphatase", "details": "phosphate starvation; vs 1021 cells; compounds 0.5 mM, 3 hours at 30° C.", "description": "Acid (A) and alkaline (B) phosphatase activity in S. meliloti cells under P-starved conditions. Log-phase cells grown in a MOPS-buffered minimal medium (starting P concentration=13 mM) were washed and then resuspended in the same medium containing no added P (1021 and RD64 strains) and 0.5 mM IAA, Trp or Ind (1021 strain). Treatments were performed for 3 hours at 30° C.\nAlkaline and acid phophatase enzymes under P-limiting conditions were assayed as previously reported (16). Units are reported as nanomoles per minute per milligram of protein. Protein concentrations were determined by the Bradford's assay."}, "S. meliloti 1021": {"tested_on": "S. meliloti 1021", "assay": "Microarray gene expression of 1021 cells treated with 0.5 mM compound;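 note: cells were harvested 3 h after the start of each treatment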", "details": "P-sufficient (13 mM)", "description": "For P starvation experiments, cells of 1021 wild-type and RD64 strains were grown at 30° C. to mid exponential phase (OD600=0.6) in RMM broth containing 1% (w/v) mannitol as carbon source and 13 mM P, washed with RMM containing 0 P, resuspended in the same medium and then divided into three cultures. No P (−P), 1.0 mM P (P-starved cells) or 13 mM P (+P cells also named P-sufficient cells) was added into the three cultures, respectively. The P-starved and P-sufficient 1021 wild type cells were treated for 3.0 hours with 0.5 mM IAA. […] To rule out that this bacteria could be partially starved for Trp, RD64 cells were also treated with 0.5 mM Trp and used for microarrays and RT-PCR analyses. […] After 3 hours of each treatment, cell batches were collected, freezed and stored at −80° C. for use in experiments."}, "[2]": {"assay": "Soluble phosphate release into bacterial free medium containing 5% PR", "details": "sterilized medium, level comparable to that released during Mt-RD64 plant growth (115.2 mg/l)", "source_text": "FIG. 4. Changes in soluble phosphate release into the bacterial free medium containing 5% phosphate rock (PR) as P source (P-limiting conditions for bacteria growing in a minimal media with PR). […] The amounts of each added organic acids derived from the data obtained in HPLC analysis and were reported in the Material and Methods section. Data are the mean±SD of five independent biological experiments (p<0.006). The concentration of soluble phosphate was estimated using a modification of Fiske and Subarrow method as described by […] et al. (37). […] Bacterial free medium was also treated with 0.5 mM IAA solution. A media that simulates growth is a media without bacteria or their supernatant. The media comprises only RP and the organic acids used as purified powder commercially available (SIGMA), the organic acids concentration used are that produced by the bacteria when grown in a defined media (with IAA, or without, or from RFD64)."}, "[3]": {"details": "1021 + 0.5 mM Indole vs untreated 1021"}, "[4]": {"details": "1021 + 0.5 mM Tryptophan vs untreated 1021"}}, "data": [{"smiles": "c1ccc2[nH]ccc2c1", "note": "[Indole, indole]", "values": [{"measurement": "acid phosphatase activity", "setting": "acid phosphatase", "value": "unaffected, or only slightly increased"}, {"measurement": "expression level of all five pho genes (RT-PCR)", "setting": "[1]; compounds 0.5 mM, 3 hours", "value": "only slightly induced or unchanged"}, {"measurement": "alkaline phosphatase activity", "setting": "alkaline phosphatase", "value": "unaffected, or only slightly increased"}, {"measurement": "M (log2 ratio of intensities) SMa1077 nex18", "setting": "S. meliloti 1021; [3]", "value": 0.7413}, {"measurement": "M (log2 ratio of intensities) SMa1087 sma1087", "setting": "S. meliloti 1021; [3]", "value": 0.7199}, {"measurement": "M (log2 ratio of intensities) SMa1128 degP4", "setting": "S. meliloti 1021; [3]", "value": 1.152}, {"measurement": "M (log2 ratio of intensities) SMa1329 sma1329", "setting": "S. meliloti 1021; [3]", "value": 1.658}, {"measurement": "M (log2 ratio of intensities) SMb21177 phoC", "setting": "S. meliloti 1021; [3]", "value": 1.282}, {"measurement": "M (log2 ratio of intensities) SMb21183 htpG", "setting": "S. meliloti 1021; [3]", "value": 0.9544}, {"measurement": "M (log2 ratio of intensities) SMc00182 smc00182", "setting": "S. meliloti 1021; [3]", "value": "−0.9429"}, {"measurement": "M (log2 ratio of intensities) SMc00335 rpsA", "setting": "S. meliloti 1021; [3]", "value": "−0.7083"}, {"measurement": "M (log2 ratio of intensities) SMc00364 rplT", "setting": "S. meliloti 1021; [3]", "value": "−1.373"}, {"measurement": "M (log2 ratio of intensities) SMc00383 gst3", "setting": "S. meliloti 1021; [3]", "value": "−0.7478"}, {"measurement": "M (log2 ratio of intensities) SMc01106 smc01106", "setting": "S. meliloti 1021; [3]", "value": 1.513}, {"measurement": "M (log2 ratio of intensities) SMc01291 rpmD", "setting": "S. meliloti 1021; [3]", "value": "−1.485"}, {"measurement": "M (log2 ratio of intensities) SMc01308 rplD", "setting": "S. meliloti 1021; [3]", "value": "−1.252"}, {"measurement": "M (log2 ratio of intensities) SMc01311 tufA", "setting": "S. meliloti 1021; [3]", "value": "−0.711"}, {"measurement": "M (log2 ratio of intensities) SMc01312 fusA1", "setting": "S. meliloti 1021; [3]", "value": 0.9128}, {"measurement": "M (log2 ratio of intensities) SMc01318 rplL", "setting": "S. meliloti 1021; [3]", "value": "−0.7037"}, {"measurement": "M (log2 ratio of intensities) SMc01946 livK", "setting": "S. meliloti 1021; [3]", "value": "−1.077"}, {"measurement": "M (log2 ratio of intensities) SMc02501 atpD", "setting": "S. meliloti 1021; [3]", "value": "−1.405"}, {"measurement": "M (log2 ratio of intensities) SMc02857 dnaK", "setting": "S. meliloti 1021; [3]", "value": 0.7321}, {"measurement": "M (log2 ratio of intensities) SMc03159 smc03159", "setting": "S. meliloti 1021; [3]", "value": "−0.938"}, {"measurement": "M (log2 ratio of intensities) SMc03167 smc03167", "setting": "S. meliloti 1021; [3]", "value": 0.7656}, {"measurement": "M (log2 ratio of intensities) SMc03253 smc03253", "setting": "S. meliloti 1021; [3]", "value": 1.951}, {"measurement": "M (log2 ratio of intensities) SMc03829 smc03829", "setting": "S. meliloti 1021; [3]", "value": 0.8604}, {"measurement": "M (log2 ratio of intensities) SMc04040 ibpA", "setting": "S. meliloti 1021; [3]", "value": 2.449}, {"measurement": "M (log2 ratio of intensities) SMc04087 smc04087", "setting": "S. meliloti 1021; [3]", "value": 1.944}, {"measurement": "M (log2 ratio of intensities) SMc04114 pilA1", "setting": "S. meliloti 1021; [3]", "value": "−1.888"}, {"measurement": "M (log2 ratio of intensities) SMc04140 smc04140", "setting": "S. meliloti 1021; [3]", "value": 1.411}, {"measurement": "M (log2 ratio of intensities) SMc04141 gst9", "setting": "S. meliloti 1021; [3]", "value": 1.708}]}, {"smiles": "N[C@@H](Cc1c[nH]c2ccccc12)C(=O)O", "note": "[Tryptophan, tryptophan]", "values": [{"measurement": "acid phosphatase activity", "setting": "acid phosphatase", "value": "unaffected, or only slightly increased"}, {"measurement": "expression of pho genes in RD64 cells after addition of compound", "setting": "[1]; 0.5 mM added to RD64 cells, vs untreated RD64 cells, data not shown", "value": "unaffected or slightly reduced"}, {"measurement": "expression level of all five pho genes (RT-PCR)", "setting": "[1]; compounds 0.5 mM, 3 hours", "value": "only slightly induced or unchanged"}, {"measurement": "phoB regulatory gene expression (qRT-PCR)", "setting": "[1]; P-sufficient (13 mM K-phosphate), vs untreated 1021 cells, compounds 0.5 mM, 3 hours", "value": "unaffected"}, {"measurement": "alkaline phosphatase activity", "setting": "alkaline phosphatase", "value": "unaffected, or only slightly increased"}, {"measurement": "M (log2 ratio of intensities) SMa0707 sma0707", "setting": "S. meliloti 1021; [4]", "value": 0.9084}, {"measurement": "M (log2 ratio of intensities) SMa0711 sma0711", "setting": "S. meliloti 1021; [4]", "value": 0.8863}, {"measurement": "M (log2 ratio of intensities) SMa1007 sma1007", "setting": "S. meliloti 1021; [4]", "value": 0.9801}, {"measurement": "M (log2 ratio of intensities) SMa1073 sma1073", "setting": "S. meliloti 1021; [4]", "value": 0.7423}, {"measurement": "M (log2 ratio of intensities) SMa1087 sma1087", "setting": "S. meliloti 1021; [4]", "value": 0.751}, {"measurement": "M (log2 ratio of intensities) SMa1118 hspC2", "setting": "S. meliloti 1021; [4]", "value": 0.8663}, {"measurement": "M (log2 ratio of intensities) SMa1128 degP4", "setting": "S. meliloti 1021; [4]", "value": 1.449}, {"measurement": "M (log2 ratio of intensities) SMa1321 virB1", "setting": "S. meliloti 1021; [4]", "value": 4.445}, {"measurement": "M (log2 ratio of intensities) SMa2145 sma2145", "setting": "S. meliloti 1021; [4]", "value": 0.9145}, {"measurement": "M (log2 ratio of intensities) SMa2189 sma2189", "setting": "S. meliloti 1021; [4]", "value": 0.993}, {"measurement": "M (log2 ratio of intensities) SMb20585 ggt", "setting": "S. meliloti 1021; [4]", "value": 1.09}, {"measurement": "M (log2 ratio of intensities) SMb20672 smb20672", "setting": "S. meliloti 1021; [4]", "value": 1.815}, {"measurement": "M (log2 ratio of intensities) SMb20984 nirB 4", "setting": "S. meliloti 1021; [4]", "value": "−1.11"}, {"measurement": "M (log2 ratio of intensities) SMb21566 groEL5", "setting": "S. meliloti 1021; [4]", "value": "−1.021"}, {"measurement": "M (log2 ratio of intensities) SMc00155 aroF", "setting": "S. meliloti 1021; [4]", "value": "−1.565"}, {"measurement": "M (log2 ratio of intensities) SMc00182 smc00182", "setting": "S. meliloti 1021; [4]", "value": "−1.097"}, {"measurement": "M (log2 ratio of intensities) SMc01169 ald", "setting": "S. meliloti 1021; [4]", "value": 0.7379}, {"measurement": "M (log2 ratio of intensities) SMc01293 rplR 3", "setting": "S. meliloti 1021; [4]", "value": "−0.7637"}, {"measurement": "M (log2 ratio of intensities) SMc01311 tufA", "setting": "S. meliloti 1021; [4]", "value": "−0.7229"}, {"measurement": "M (log2 ratio of intensities) SMc01313 rpsG", "setting": "S. meliloti 1021; [4]", "value": "−0.7518"}, {"measurement": "M (log2 ratio of intensities) SMc01314 rpsL", "setting": "S. meliloti 1021; [4]", "value": "−0.7349"}, {"measurement": "M (log2 ratio of intensities) SMc01636 smc01636", "setting": "S. meliloti 1021; [4]", "value": "−0.9473"}, {"measurement": "M (log2 ratio of intensities) SMc02507 sitC", "setting": "S. meliloti 1021; [4]", "value": 1.133}, {"measurement": "M (log2 ratio of intensities) SMc03253 smc03253", "setting": "S. meliloti 1021; [4]", "value": 2.689}, {"measurement": "M (log2 ratio of intensities) SMc04140 smc04140", "setting": "S. meliloti 1021; [4]", "value": 2.032}, {"measurement": "M (log2 ratio of intensities) SMc04141 gst9", "setting": "S. meliloti 1021; [4]", "value": 1.581}, {"measurement": "M (log2 ratio of intensities) SMc04147 smc04147", "setting": "S. meliloti 1021; [4]", "value": 0.8262}, {"measurement": "M (log2 ratio of intensities) SMc04434 rpmH", "setting": "S. meliloti 1021; [4]", "value": "−0.7758"}, {"measurement": "pho genes among those significantly affected (microarray)", "setting": "S. meliloti 1021; 1021 + 0.5 mM compound vs untreated 1021", "value": "did not find any pho genes"}]}, {"smiles": "O=C(O)CCC(O)C(=O)O", "note": "(stereo not drawn) [2-hydroxyglutaric acid]", "values": [{"measurement": "P solubilization upon exogenous addition of 2-hydroxyglutaric acid", "setting": "[2]", "value": "highest"}]}]}
